Data reported in patent publication US11306101B2 (Celgene Corporation, priority 2019, dated 2022).

Biological target: T1, CK1α (Homo sapiens, UniProt P48729+Q96SW2)
T1 construct: expressed in transfected cells
Test: CK1α ePL degradation assay in MDS-L cells
Format: cell-based
Conditions: MDS-L cells expressing ePL-tagged CK1α; for DC50: concentration giving 50% CK1α degradation vs DMSO control; for Y: lowest measured CK1α level normalized to DMSO control
How it was run: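 Degradation efficiency is reported as Y value, the minimum CK1α level (percent of DMSO control) across doses. Readout used InCELL Hunter luminescent detection after MDS-L cell exposure at 37° C for stated times, doses 10 μM down to 0.0005 μM in 3-fold steps.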

T1 sequence (P48729 whole entry): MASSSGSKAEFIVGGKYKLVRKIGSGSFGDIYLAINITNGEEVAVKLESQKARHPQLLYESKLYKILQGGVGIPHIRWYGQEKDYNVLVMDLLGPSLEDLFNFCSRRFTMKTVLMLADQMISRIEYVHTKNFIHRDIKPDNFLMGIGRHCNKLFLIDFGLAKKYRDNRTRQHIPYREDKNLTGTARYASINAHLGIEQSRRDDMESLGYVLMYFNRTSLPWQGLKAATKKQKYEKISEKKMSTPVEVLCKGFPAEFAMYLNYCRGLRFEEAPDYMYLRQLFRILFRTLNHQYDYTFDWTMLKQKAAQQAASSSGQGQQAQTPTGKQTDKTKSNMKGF
T1 sequence (Q96SW2 whole entry): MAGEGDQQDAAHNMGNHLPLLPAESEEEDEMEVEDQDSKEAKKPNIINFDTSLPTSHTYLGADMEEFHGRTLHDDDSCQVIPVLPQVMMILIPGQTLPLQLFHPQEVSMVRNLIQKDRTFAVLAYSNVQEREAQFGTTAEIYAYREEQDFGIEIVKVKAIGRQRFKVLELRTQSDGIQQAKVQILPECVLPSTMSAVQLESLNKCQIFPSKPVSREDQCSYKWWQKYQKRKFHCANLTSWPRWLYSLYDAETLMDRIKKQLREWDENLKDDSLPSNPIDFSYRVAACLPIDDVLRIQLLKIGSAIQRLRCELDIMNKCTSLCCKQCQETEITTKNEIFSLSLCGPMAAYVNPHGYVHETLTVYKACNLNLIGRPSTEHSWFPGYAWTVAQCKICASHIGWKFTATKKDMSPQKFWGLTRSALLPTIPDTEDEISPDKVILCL
T1 sequence (Q16531 whole entry partner): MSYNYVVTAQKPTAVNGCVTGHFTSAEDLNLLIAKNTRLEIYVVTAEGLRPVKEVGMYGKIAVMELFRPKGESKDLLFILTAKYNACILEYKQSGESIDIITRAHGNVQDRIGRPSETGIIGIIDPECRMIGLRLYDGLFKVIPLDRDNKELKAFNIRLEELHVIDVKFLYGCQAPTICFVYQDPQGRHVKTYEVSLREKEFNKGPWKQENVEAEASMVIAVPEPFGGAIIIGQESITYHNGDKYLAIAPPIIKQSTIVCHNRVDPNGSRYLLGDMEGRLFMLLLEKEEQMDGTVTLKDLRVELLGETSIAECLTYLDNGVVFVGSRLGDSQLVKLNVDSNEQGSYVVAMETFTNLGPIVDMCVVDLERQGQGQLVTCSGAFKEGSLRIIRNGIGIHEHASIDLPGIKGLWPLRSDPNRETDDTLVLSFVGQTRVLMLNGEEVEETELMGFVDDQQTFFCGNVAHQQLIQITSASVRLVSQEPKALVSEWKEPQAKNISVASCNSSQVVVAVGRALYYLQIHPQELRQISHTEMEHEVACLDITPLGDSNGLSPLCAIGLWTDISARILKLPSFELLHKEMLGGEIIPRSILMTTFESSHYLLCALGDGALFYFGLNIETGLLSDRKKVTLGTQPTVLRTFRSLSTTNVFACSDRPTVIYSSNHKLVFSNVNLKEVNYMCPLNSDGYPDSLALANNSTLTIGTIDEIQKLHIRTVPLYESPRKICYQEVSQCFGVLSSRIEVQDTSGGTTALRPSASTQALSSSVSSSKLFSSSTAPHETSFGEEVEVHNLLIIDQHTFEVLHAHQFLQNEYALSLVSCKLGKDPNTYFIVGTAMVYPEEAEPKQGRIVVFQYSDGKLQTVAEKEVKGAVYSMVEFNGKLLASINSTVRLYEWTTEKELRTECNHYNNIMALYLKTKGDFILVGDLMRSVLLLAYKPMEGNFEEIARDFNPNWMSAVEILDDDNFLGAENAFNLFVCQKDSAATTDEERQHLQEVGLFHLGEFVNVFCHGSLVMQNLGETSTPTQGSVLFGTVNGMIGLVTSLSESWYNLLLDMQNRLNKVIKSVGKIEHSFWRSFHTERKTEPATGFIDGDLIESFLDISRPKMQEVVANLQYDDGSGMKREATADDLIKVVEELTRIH

Compound	DC50	Y
O=C1CC[C@H](N2Cc3cc(C(=O)N[C@H](c4ncccc4Cl)C(F)(F)F)ccc3C2=O)C(=O)N1 [Example 173, N-((R)-1-(3-chloropyridin-2-yl)-2,2,2-trifluoroethyl)-2-((S)-2,6-dioxopiperidin-3-yl)-1-oxoisoindoline-5-carboxamide]	< 100 nM	* (a Y value (shown as *) of 0<Y≤20%)
O=C1CCC(N2Cc3cc(C(=O)NC(C4CCC5(CC4)CC(O)C5)C(F)(F)F)ccc3C2=O)C(=O)N1 (centres unmarked) [Example 181, 2-(2,6-dioxopiperidin-3-yl)-1-oxo-N-(2,2,2-trifluoro-1-(2-hydroxyspiro[3.5]nonan-7-yl)ethyl)isoindoline-5-carboxamide]	100 to 500 nM	* (a Y value (shown as *) of 0<Y≤20%)
O=C1CCC(N2Cc3c(ccc(C(=O)N[C@H](c4ccc(OC5CC5)cc4)C(F)(F)F)c3F)C2=O)C(=O)N1 (stereo partly drawn) [Example 130, N-((R)-1-(4-cyclopropoxyphenyl)-2,2,2-trifluoroethyl)-2-(2,6-dioxopiperidin-3-yl)-4-fluoro-1-oxoisoindoline-5-carboxamide]	100 to 500 nM	** (a Y value (shown as**) of 20%<Y≤35%)
CC[C@@H](NC(=O)c1ccc2c(c1)CN(C1CCC(=O)NC1=O)C2=O)c1ccccc1 (some centres unmarked) [Example 118]	100 to 500 nM	** (a Y value (shown as**) of 20%<Y≤35%)
O=C1CCC(N2Cc3cc(C(=O)N[C@H](c4ccc(C(F)(F)F)cn4)C(F)(F)F)ccc3C2=O)C(=O)N1 (stereo partly drawn) [Example 126, 2-(2,6-dioxopiperidin-3-yl)-1-oxo-N-((R)-2,2,2-trifluoro-1-(5-(trifluoromethyl)pyridin-2-yl)ethyl)isoindoline-5-carboxamide]	< 100 nM	** (a Y value (shown as**) of 20%<Y≤35%)
Cc1ccc([C@@H](NC(=O)c2ccc3c(c2F)CN(C2CCC(=O)NC2=O)C3=O)C(F)(F)F)cc1 (stereo partly drawn) [Example 144, 2-(2,6-dioxopiperidin-3-yl)-4-fluoro-1-oxo-N-((R)-2,2,2-trifluoro-1-p-tolylethyl)isoindoline-5-carboxamide]	100 to 500 nM	* (a Y value (shown as *) of 0<Y≤20%)
O=C1CCC(N2Cc3cc(C(=O)N[C@H](c4ccccc4C(F)(F)F)C(F)(F)F)ccc3C2=O)C(=O)N1 (stereo partly drawn) [Example 47, 2-(2,6-dioxopiperidin-3-yl)-1-oxo-N-((R)-2,2,2-trifluoro-1-(2-(trifluoromethyl)phenyl)ethyl)isoindoline-5-carboxamide]	< 100 nM	* (a Y value (shown as *) of 0<Y≤20%)
